The test concerns RS4;11 cells. The experiment in a line: Cell growth inhibition, 4-day proliferation assay (WST-8). Format: cell-based. To be noted: Homo sapiens, 96 h; RS4;11 cells, 4 days, WST-8; read-out: RS4; 11 Cells IC50. How it is done: The effect of representative Compounds of the Disclosure on cell viability was determined in a 4-day proliferation assay. Cells were maintained in the appropriate culture medium with 10% FBS at 37° C. and an atmosphere of 5% CO2. Also, the effect of a MDM2 inhibitor (Cpd. A; see Compound Example No. 22 of U.S. Pat. No. 8,629,141) and a known MDM2 degrader (Cpd. D, see Cpd. No. 175 of WO 2017/0176957) on cell viability in various cell lines is also included in Table 5. Cpd. […] A and D. The structure of Cpd. A is:
Cells were seeded in 96-well flat bottom (Corning COSTAR, Corning, N.Y., cat #3595) at a density of 2,000-3,000 cells/well in 100 μL of culture medium. Compounds were serially diluted in the appropriate medium, and 100 μL of the diluted compounds were added to the appropriate wells of the cell plate. After the addition of compounds, the cells were incubated at 37° C. in an atmosphere of 5% CO2 for 4 days. Cell viability was determined using the WST (2-(2-methoxy-4-nitrophenyl)-3-(4-nitrophenyl)-5-(2,4-disulfophenyl)-2H-tetrazolium, monosodium salt) Cell Counting-8 Kit (Dojindo Molecular Technologies, Inc., Rockville, Md.) according to the manufacturers' instructions.
WST-8 reagent was added to each well at a final concentration of 10% (v/v), and then the plates were incubated at 37° C. for 1-2 hours for color development. The absorbance was measured at 450 nm using a SPECTRAmax PLUS plate reader (Molecular Devices, Sunnyvale, Calif.). The readings were normalized to the DMSO-treated cells and the half maximal inhibitory concentration (IC50) was calculated by nonlinear regression (four parameters sigmoid fitted with variable slope, least squares fit, and no constraint) analysis using the GraphPad Prism 5 software (GraphPad Software, La Jolla, Calif.).
In general terms: Tetrazolium assays rely on reduction of a dye to a coloured formazan, in cell work by metabolically active cells.

As to `CC1(C#Cc2cccc3c2CN(C2CCC(=O)NC2=O)C3=O)CCN(C(=O)C23CCC(NC(=O)[C@@H]4NC5(CCCCC5)[C@@]5(C(=O)Nc6cc(Cl)ccc65)[C@H]4c4cccc(Cl)c4F)(CC2)CC3)CC1` (stereo partly drawn) [Cpd. No. 31, (3′R,4′S,5′R)-6″-chloro-4′-(3-chloro-2-fluorophenyl)-N-(4-(4-((2-(2,6-dioxopiperidin-3-yl)-1-oxoisoindolin-4-yl)ethynyl)-4-methylpiperidine-1-carbonyl)bicyclo[2.2.2]octan-1-yl)-2″-oxodispiro[cyclohexane-1,2′-pyrrolidine-3′,3″-indoline]-5′-carboxamide], the IC50 amounted to 2.9 nM.

In the case of `CCN1[C@@H](C(=O)Nc2ccc(C(=O)N3CCC(C#Cc4cccc5c4CN(C4CCC(=O)NC4=O)C5=O)CC3)cc2)[C@H](c2cccc(Cl)c2F)[C@]2(C(=O)Nc3cc(Cl)ccc32)C12CCCCC2` (stereo partly drawn) [Cpd. No. 24, (3′R,4′S,5′R)-6″-chloro-4′-(3-chloro-2-fluorophenyl)-N-(4-(4-((2-(2,6-dioxopiperidin-3-yl)-1-oxoisoindolin-4-yl)ethynyl)piperidine-1-carbonyl)phenyl)-1′-ethyl-2″-oxodispiro[cyclohexane-1,2′-pyrrolidine-3′,3″-indoline]-5′-carboxamide], the IC50 was determined as 6.6 nM.

Regarding `O=C1CCC(N2Cc3c(C#CC4CCN(C(=O)C5CCN(C(=O)[C@@H]6NC7(CCCCC7)[C@@]7(C(=O)Nc8cc(Cl)ccc87)[C@H]6c6cccc(Cl)c6F)CC5)CC4)cccc3C2=O)C(=O)N1` (stereo partly drawn) [Cpd. No. 23, 3-(4-((1-(1-((3′R,4′S,5′R)-6″-chloro-4′-(3-chloro-2-fluorophenyl)-2″-oxodispiro[cyclohexane-1,2′-pyrrolidine-3′,3″-indoline]-5′-carbonyl)piperidine-4-carbonyl)piperidin-4-yl)ethynyl)-1-oxoisoindolin-2-yl)piperidine-2,6-dione], the IC50 is over 100 nM. For `CN1[C@@H](C(=O)NC23CCC(C(=O)N4CCC(C#Cc5cccc6c5CN(C5CCC(=O)NC5=O)C6=O)CC4)(CC2)CC3)[C@H](c2cccc(Cl)c2F)[C@]2(C(=O)Nc3cc(Cl)ccc32)C12CCCCC2` (stereo partly drawn) [Cpd. No. 10, (3′R,4′S,5′R)-6″-chloro-4′-(3-chloro-2-fluorophenyl)-N-(4-(4-((2-(2,6-dioxopiperidin-3-yl)-1-oxoisoindolin-4-yl)ethynyl)piperidine-1-carbonyl)bicyclo[2.2.2]octan-1-yl)-1 ′-methyl-2″-oxodispiro[cyclohexane-1,2′-pyrrolidine-3′,3″-indoline]-5′-carboxamide], the IC50 was found to be 8 nM. The value for `O=C1CCC(N2Cc3c(C#CCCCNC(=O)[C@H]4CC[C@H](NC(=O)[C@@H]5NC6(CCCCC6)[C@@]6(C(=O)Nc7cc(Cl)ccc76)[C@H]5c5ccccc5F)CC4)cccc3C2=O)C(=O)N1` (stereo partly drawn) [Cpd. No. 25, (3′R,4′S,5′R)-6″-chloro-N-(4-((5-(2-(2,6-dioxopiperidin-3-yl)-1-oxoisoindolin-4-yl)pent-4-yn-1-yl)carbamoyl)cyclohexyl)-4′-(2-fluorophenyl)-2″-oxodispiro[cyclohexane-1,2′-pyrrolidine-3′,3″-indoline]-5′-carboxamide] was over 100 nM; that for `CC1(C#Cc2cccc3c2CN(C2CCC(=O)NC2=O)C3=O)CCN(C(=O)[C@H]2CC[C@H](NC(=O)[C@@H]3NC4(CCCCC4)[C@@]4(C(=O)Nc5cc(Cl)ccc54)[C@H]3c3cccc(Cl)c3F)CC2)CC1` (stereo partly drawn) [Cpd. No. 30, (3′R,4′S,5′R)-6″-chloro-4′-(3-chloro-2-fluorophenyl)-N-(4-(4-((2-(2,6-dioxopiperidin-3-yl)-1-oxoisoindolin-4-yl)ethynyl)-4-methylpiperidine-1-carbonyl)cyclohexyl)-2″-oxodispiro[cyclohexane-1,2′-pyrrolidine-3′,3″-indoline]-5′-carboxamide] was 1.2 nM; that for `O=C1CCC(N2Cc3c(C#CCCCNC(=O)[C@H]4CC[C@H](NC(=O)[C@@H]5NC6(CCCCC6)[C@@]6(C(=O)Nc7cc(Cl)ccc76)[C@H]5c5ccccc5)CC4)cccc3C2=O)C(=O)N1` (stereo partly drawn) [Cpd. No. 27, (3′R,4′R,5′R)-6″-chloro-N-((1r,4R)-4-((5-(2-(2,6-dioxopiperidin-3-yl)-1-oxoisoindolin-4-yl)pent-4-yn-1-yl)carbamoyl)cyclohexyl)-2″-oxo-4′-phenyldispiro[cyclohexane-1,2′-pyrrolidine-3′,3″-indoline]-5′-carboxamide] was over 100 nM. Consider `CC(C)[C@@H](CS(=O)(=O)C(C)C)N1C(=O)[C@@](C)(CC(=O)NCCCC#Cc2cccc3c2CN(C2CCC(=O)NC2=O)C3=O)C[C@H](c2cccc(Cl)c2)[C@H]1c1ccc(Cl)cc1` (stereo partly drawn) [Cpd. No. 37, 2-((3R,5R,6S)-5-(3-chlorophenyl)-6-(4-chlorophenyl)-1-((S)-1-(isopropylsulfonyl)-3-methylbutan-2-yl)-3-methyl-2-oxopiperidin-3-yl)-N-(5-(2-(2,6-dioxopiperidin-3-yl)-1-oxoisoindolin-4-yl)pent-4-yn-1-yl)acetamide], for which the IC50 is over 100 nM. For `CCN1[C@@H](C(=O)N2CCC(C(=O)N3CCC(C#Cc4cccc5c4CN(C4CCC(=O)NC4=O)C5=O)CC3)CC2)[C@H](c2cccc(Cl)c2F)[C@]2(C(=O)Nc3cc(Cl)ccc32)C12CCCCC2` (stereo partly drawn) [Cpd. No. 22, 3-(4-((1-(1-((3′R,4′S,5′R)-6″-chloro-4′-(3-chloro-2-fluorophenyl)-1′-ethyl-2″-oxodispiro[cyclohexane-1,2′-pyrrolidine-3′,3″-indoline]-5′-carbonyl)piperidine-4-carbonyl)piperidin-4-yl)ethynyl)-1-oxoisoindolin-2-yl)piperidine-2,6-dione] the value was over 100 nM; for `O=C1CCC(N2Cc3c(C#CC4CCN(C(=O)CC5CCN(C(=O)[C@@H]6NC7(CCCCC7)[C@@]7(C(=O)Nc8cc(Cl)ccc87)[C@H]6c6cccc(Cl)c6F)CC5)CC4)cccc3C2=O)C(=O)N1` (stereo partly drawn) [Cpd. No. 29, 3-(4-((1-(2-(1-((3′R,4′S,5′R)-6″-chloro-4′-(3-chloro-2-fluorophenyl)-2″-oxodispiro[cyclohexane-1,2′-pyrrolidine-3′,3″-indoline]-5′-carbonyl)piperidin-4-yl)acetyl)piperidin-4-yl)ethynyl)-1-oxoisoindolin-2-yl)piperidine-2,6-dione], over 100 nM. `COc1cc(C(=O)N2CCC(C#Cc3cccc4c3CN(C3CCC(=O)NC3=O)C4=O)CC2)ccc1NC(=O)[C@@H]1NC2(CCCCC2)[C@@]2(C(=O)Nc3cc(Cl)ccc32)[C@H]1c1cccc(Cl)c1F` (stereo partly drawn) [Cpd. No. 28, (3′R,4′S,5′R)-6″-chloro-4′-(3-chloro-2-fluorophenyl)-N-(4-(4-((2-(2,6-dioxopiperidin-3-yl)-1-oxoisoindolin-4-yl)ethynyl)piperidine-1-carbonyl)-2-methoxyphenyl)-2″-oxodispiro[cyclohexane-1,2′-pyrrolidine-3′,3″-indoline]-5′-carboxamide]: the IC50 is over 100 nM.

`CC(C)(C)C[C@@H]1N[C@@H](C(=O)NC23CCC(C(=O)N4CCC(C#Cc5cccc6c5CN(C5CCC(=O)NC5=O)C6=O)CC4)(CC2)CC3)[C@H](c2cccc(Cl)c2F)[C@@]1(C#N)c1ccc(Cl)cc1F` (stereo partly drawn) [Cpd. No. 38]: the IC50 was 56 nM. Take `O=C1CCC(N2Cc3c(C#CC4CCN(C(=O)CN5CCC(NC(=O)[C@@H]6NC7(CCCCC7)[C@@]7(C(=O)Nc8cc(Cl)ccc87)[C@H]6c6cccc(Cl)c6F)CC5)CC4)cccc3C2=O)C(=O)N1` (stereo partly drawn) [Cpd. No. 5, (3′R,4′S,5′R)-6″-chloro-4′-(3-chloro-2-fluorophenyl)-N-(1-(2-(4-((2-(2,6-dioxopiperidin-3-yl)-1-oxoisoindolin-4-yl)ethynyl)piperidin-1-yl)-2-oxoethyl)piperidin-4-yl)-2″-oxodispiro[cyclohexane-1,2′-pyrrolidine-3′,3″-indoline]-5′-carboxamide]: the IC50 turned out to be 3.1 nM. For `O=C1CCC(N2Cc3c(C#CCCCNC(=O)[C@H]4CC[C@H](NC(=O)[C@@H]5NC6(CCCCC6)[C@@]6(C(=O)Nc7cc(Cl)ccc76)[C@H]5c5cccc(Cl)c5)CC4)cccc3C2=O)C(=O)N1` (stereo partly drawn) [Cpd. No. 26, (3′R,4′R,5′R)-6″-chloro-4′-(3-chlorophenyl)-N-((1r,4R)-4-((5-(2-(2,6-dioxopiperidin-3-yl)-1-oxoisoindolin-4-yl)pent-4-yn-1-yl)carbamoyl)cyclohexyl)-2″-oxodispiro[cyclohexane-1,2′-pyrrolidine-3′,3″-indoline]-5′-carboxamide], the IC50 is 0.7 nM.

`CC(C)(C)C[C@@H]1N[C@@H](C(=O)N[C@H]2CC[C@H](C(=O)NCCCC#Cc3cccc4c3CN(C3CCC(=O)NC3=O)C4=O)CC2)[C@H](c2cccc(Cl)c2F)[C@]12C(=O)Nc1cc(Cl)ccc12` (stereo partly drawn) [Cpd. No. 3, (2′S,3R,4′S,5′R)-6-chloro-4′-(3-chloro-2-fluorophenyl)-N-((1r,4R)-4-((5-(2-(2,6-dioxopiperidin-3-yl)-1-oxoisoindolin-4-yl)pent-4-yn-1-yl)carbamoyl)cyclohexyl)-2′-neopentyl-2-oxospiro[indoline-3,3′-pyrrolidine]-5′-carboxamide]: the IC50 turned out to be 0.62 nM.

Values taken from patent publication US20210309666A1, “SMALL MOLECULE MDM2 PROTEIN DEGRADERS” (THE REGENTS OF THE UNIVERSITY OF MICHIGAN, priority 2018, published 2021).
